For one test, the system named is lymphocyte count. The test can be described thus: Lymphocyte count in mice. It is filed as in vivo. To be noted: 10 mg/kg p.o., blood at 4 hr, FIG. 2. The method, then:
A total of 6 mice were used in this study for each compound (Examples 1-6) and divided in two groups as Group 1 (vehicle, Dose: 10 mL/kg) and Group 2 (Compound, Dose: 10 mg/kg, p.o.). Animals in Group 1 were administered with vehicle. Animals in Group 2 were administered with solution formulation of PTC1566-1 at 10 mg/kg dose through oral route. Blood samples from Group 2 were collected under light isoflurane anesthesia from a set of three mice at 1 & 4 hr (p.o.) and from Group 1 blood samples were collected at 4 hr. Plasma was harvested by centrifugation of blood and stored at −70° C. until analysis. Brain was collected at 4 hr from Group 2 animals, weighed and transferred in a poly-propylene tube. Two volumes of PBS buffer (pH 7.4) was added and homogenized to get final volume of 3 times and stored below −70° C. until bioanalysis. Blood sample at 4 hr from both groups were used for lymphocyte count. Analysis Plasma and Brain samples were quantified by fit-for-purpose LCMS/MS method (LLOQ: 4.91 ng/mL for plasma and 14.73 ng/g for brain). For each of the six compounds tested, plasma concentration was greater than 2600 ng/mL at 1 hr and greater than 2100 ng/mL at 4 hr. For each of the six compounds tested, brain concentration was less than 200 ng/g. For each of the six compounds tested (Compound 15, Compound 18, Compound 19, Compound 16, Compound 11, and Compound 13), the lymphocyte count was less than 45% of control (FIG. 2).

In another test the target is human S1P1 (Homo sapiens (Human), UniProt P21453). The test can be described thus: GTPγS binding assay (scintillation proximity assay). As to conditions: S1P1 membrane from CHO-K1 Gαqi5 cells expressing full-length human S1P1; GTPγ35S SPA. It is filed as biochemical. The method, then: S1P1 membrane is prepared from CHO-K1 Gαqi5 cells expression full-length human S1P1. Scintillation proximity assay (SPA) is performed by incubating membranes, GTPγ^35S, and compounds at various concentrations for 60 minutes. Wheat germ agglutinin-coated SPA beads are added and incubated for 60 minutes before centrifugation and scintillation counting.
Sequence of human S1P1 (P21453 whole entry): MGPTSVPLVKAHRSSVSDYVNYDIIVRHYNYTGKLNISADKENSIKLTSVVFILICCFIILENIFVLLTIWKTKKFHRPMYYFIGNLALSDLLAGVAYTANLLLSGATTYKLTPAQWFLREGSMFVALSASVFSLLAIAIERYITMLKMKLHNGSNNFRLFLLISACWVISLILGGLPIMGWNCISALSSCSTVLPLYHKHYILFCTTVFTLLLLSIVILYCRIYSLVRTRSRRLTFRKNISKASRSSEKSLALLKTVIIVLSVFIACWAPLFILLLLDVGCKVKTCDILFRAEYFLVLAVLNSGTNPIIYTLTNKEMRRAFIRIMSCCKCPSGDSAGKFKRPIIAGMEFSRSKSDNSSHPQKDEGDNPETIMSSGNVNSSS
A general note: GTPγS is a poorly hydrolysed GTP analogue; its binding reports G protein activation.

Turning to `CN1C[C@@H](Oc2cc(Cl)c(-c3noc(-c4cn5cc(C(F)(F)F)cc(Cl)c5n4)n3)cc2Cl)CCC1=O` [Example 4, (S)-5-(2,5-dichloro-4-(5-(8-chloro-6-(trifluoromethyl)imidazo[1,2-a]pyridin-2-yl)-1,2,4-oxadiazol-3-yl)phenoxy)-1-methylpiperidin-2-one], in the test with lymphocyte count, the lymphocyte count result was “less than 45 % of control”. Turning to `O=C1CC[C@H](COc2cc(Cl)c(-c3noc(-c4cn5cc(C(F)(F)F)cc(Cl)c5n4)n3)cc2Cl)N1` [Example 3, (R)-5-((2,5-dichloro-4-(5-(8-chloro-6-(trifluoromethyl)imidazo[1,2-a]pyridin-2-yl)-1,2,4-oxadiazol-3-yl)phenoxy)methyl)pyrrolidin-2-one], in the test with lymphocyte count, the lymphocyte count result is reported as “less than 45 % of control”. On to `O=C1CC[C@@H](Oc2cc(Cl)c(-c3noc(-c4cn5cc(C(F)(F)F)cc(Cl)c5n4)n3)cc2Cl)CN1` [Example 5, (R)-5-(2,5-dichloro-4-(5-(8-chloro-6-(trifluoromethyl)imidazo[1,2-a]pyridin-2-yl)-1,2,4-oxadiazol-3-yl)phenoxy)piperidin-2-one], for which, on human S1P1, the EC50 was less than 1000 nM. In the test on lymphocyte count, the lymphocyte count result is recorded as “less than 45 % of control”. For the molecule `CN1C[C@H](Oc2cc(Cl)c(-c3noc(-c4cn5cc(C(F)(F)F)cc(Cl)c5n4)n3)cc2Cl)CCC1=O` [Example 6, (R)-5-(2,5-dichloro-4-(5-(8-chloro-6-(trifluoromethyl)imidazo[1,2-a]pyridin-2-yl)-1,2,4-oxadiazol-3-yl)phenoxy)-1-methylpiperidin-2-one], the EC50 on human S1P1 was less than 1000 nM. For the same molecule, the lymphocyte count entry in the test on lymphocyte count is given as “less than 45 % of control”. As for `O=C1CC[C@@H](COc2cc(Cl)c(-c3noc(-c4cn5cc(C(F)(F)F)cc(Cl)c5n4)n3)cc2Cl)N1` [Example 1, (S)-5-((2,5-dichloro-4-(5-(8-chloro-6-(trifluoromethyl)imidazo[1,2-a]pyridin-2-yl)-1,2,4-oxadiazol-3-yl)phenoxy)methyl)pyrrolidin-2-one], the EC50 at human S1P1 was less than 1000 nM. In the test with lymphocyte count, the lymphocyte count result is listed as “less than 45 % of control”.

By EC50 is commonly meant the concentration that produces a half-maximal response.

The record behind these values is patent publication US10683291B2, “Heterocyclic compounds for the treatment of disease” (OPPILAN PHARMA LTD., priority 2015, dated 2020).
